# “Also recorded” adds a separate entry of the source.
# How the values were obtained:
# [1] = tested on: hyperactivity induced by scopolamine; test: Inhibition of hyperactivity induced by scopolamine; format: in vivo, rats (male Sprague-Dawley SPF); details: administered more than 15 minutes before the measurements; in words
# [2] = tested on: effects of scopolamine on the EEG, band from 6.4 to 9.6 Hz; test: Inhibition of the effects of scopolamine on the electroencephalogram (EEG); format: in vivo, rats (male albino Sprague-Dawley SPF)
# Procedure: Male albino Sprague-Dawley SPF rats (160 to 200 g) are used in this test.
# When the animals are 3 months old, 5 cortical electrodes are implanted permanently, aseptically and under a general anesthesia: one inert electrode, one left and one right frontal electrode, and one left and one right occipital electrode (P. ETEVENON, loc. cit.).
# The test is carried out when the animals are about 15 months old. In the meantime, the animals are kept in individual cages. They are given water and food ad libitum and are subjected to a regular daily cycle comprising a period of darkness between 6 o'clock in the evening and 6 o'clock in the morning. At the same time, the animals are progressively acclimatized to the cages of the sound-proof cabin which they will subsequently occupy for recording of the electroencephalograms, as well as to the experimental conditions, by intraperitoneal administration of placebo. The products are administered immediately before the EEG is recorded.
# The rats are divided into groups of 8 animals and 16 samples of the EEG spectra are recorded over 5 seconds (two EEG spectra per animal). The spectra obtained are then analyzed by computer (rapid Fourier transform), which enables the average of the 16 measurements performed to be determined for each group and the overall intensity of the EEG spectrum and the distribution of this intensity (in %) in the various frequency bands to be deduced for each animal.
# This operation (recording of the spectra) is repeated 9 times (total duration: 121 minutes).
# [3] = tested on: learning of the avoidance reflex; test: Multiple-trial passive avoidance: learning; format: in vivo, rats (male Sprague-Dawley); details: i.p. at the dose (mg/kg) of the line in Table V, 30 min before test; criterion 180 seconds on the mat
# Procedure: To evaluate whether a compound can promote learning, the following test is carried out.
# This experiment is repeated until the animal remains on the rubber mat for at least 180 seconds in order to avoid the electric shock. The learning is expressed by the average number of trials needed to reach a period of 180 seconds remaining on the mat.
# A period of remaining on the rubber mat of 180 seconds is regarded as being the maximum performance which can be realized by the animal to avoid the electric shock. Rats which remain on the mat for this period have acquired the avoidance reflex and are replaced in their original cage without receiving the electric shock.
# group 1 receives an intraperitoneal injection of physiological salt solution:
# group 2 receives an intraperitoneal injection of the compound to be tested:
# Columns 3 and 4 show the results obtained in the test used to evaluate the learning. The figures indicate the average number of trials needed for a control animal (group 1) or an animal treated (group 2) with the compound to learn to remain on the rubber mat for 180 seconds in order to avoid the electric shock. The results were analyzed by the Student test.
# [4] = tested on: amnesia induced by scopolamine; test: Multiple-trial passive avoidance: mnemic retention (amnesia induced by scopolamine)
# Procedure: To this end, the method of multiple-trial passive avoidance has been used. This method is well-known for evaluating the effects which a product exerts on the memory and learning (A. FINE et al., Proc. Natl. Acad. Sci. U.S.A., 82, (1985), 5227-5230).
# The test is carried out on male Sprague-Dawley rats (160-200 g). which are kept in standard cages throughout the experiment.
# The apparatus used is a transparent square cage with 35 cm sides and 25 cm high, fitted with a grid floor which can be electrified. An insulating rubber mat (10×17 cm) is placed on the floor in one of the corners of the cage.
# Each animal is subjected to four tests at times 0, 4, 24 and 28 hours. In the first test (time 0), the animal is placed on the rubber mat and the time which it takes to decide to leave this position to explore the cage is recorded. After 20 seconds of exploration, the rat receives an electric shock (3 seconds duration) in the paws, causing a flight reaction. The rat is immediately removed from the apparatus and replaced in its original cage. In the course of the three subsequent tests (times: 4, 24 and 28 hours), the animal is replaced on the rubber mat and the time taken to leave this position is recorded. When the four paws of the animal rest on the grid, it receives an electric shock and is immediately removed from the apparatus.
# At the start of the experiment, the rats are divided into 4 homogeneous groups of 15 animals. Thirty minutes before each test, each group of animals is subjected to a predetermined treatment:
# Groups 1 and 2 are used in the first experiment and groups 3 and 4 are used in the second experiment.
# The differences observed are analyzed statistically by the Mann-Whitney method.
# [5] = tested on: hyperactivity induced by scopolamine; details: rats placed in a new environment; in words, literature; cited from earlier work
# memory = details: in words, literature; cited from earlier work
smiles,measurement,setting,value
"CNC(=O)Oc1ccc2c(c1)[C@]1(C)CCN(C)[C@@H]1N2C [physostigmine, reference compound]",activity of physostigmine on the hyperactivity induced by scopolamine,[1],inactive
same,Inhibition of the effects of scopolamine on the band from 6.4 to 9.6 Hz in the EEG,"[2]; rats, i.p. at the dose (mg/kg) of the line in Table IV, scopolamine 0.5 mg/kg i.p.",76.8%
same,effect on the EEG spectrum,"[2]; scopolamine 0.5 mg/kg i.p. in rats, in words",counteracts these variations
same,"Learning, average number of trials (group 2)",[3],2.30
same,"Period of remaining on the mat, group 4, 4 hours","[4]; compound i.p. at the dose of the line + scopolamine 0.5 mg i.p., 4 h",17.8 s
same,"Period of remaining on the mat, group 4, 24 hours","[4]; compound i.p. at the dose of the line + scopolamine 0.5 mg i.p., 24 h",56.2 s
same,"Period of remaining on the mat, group 4, 28 hours","[4]; compound i.p. at the dose of the line + scopolamine 0.5 mg i.p., 28 h",53.4 s
same,relation of active dose to side effects / toxic dose,"[4]; dose active against the amnesing effect of scopolamine, in words",obtained at a dose which has side effects and is very close to the toxic dose
same,effect against the amnesing effect of scopolamine,[4]; in words,favorable action against the amnesing effect of scopolamine
same,effect on exploratory activity,[5],counteracts the hyperactivity induced by scopolamine
same,effect on memory,memory,an improvement in anemic disorders; also recorded: capable of combating the amnesia resulting from the administration of anticholinergic agents

# Reference: patent publication US4956363A, “Treatment of cognitive and behavioral disorders associated with aging and with dementia syndromes” (U C B S.A., priority 1988, dated 1990)
